Test systems include A549 NSCLC; ACHN renal; HCT-116 colon; KM12 colon; MDA-MB-435; NCI-H460 lung; NCI/ADR-RES ovarian; OVCAR-5 ovarian; UACC-62 melanoma; UO-31 renal.
Common to all, as to test: growth of human tumour cells (NCI), 48 h

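Where inhibition never reached the appropriate level, the endpoint shown equals the highest concentration tested. Otherwise, values were interpolated linearly from a five-concentration, 48-hour dose response in 96-well plates. TGI is the concentration that stops growth completely.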 Where a SMILES comes first, the peptide text is derived from it. [ ]: non-standard residue; d: D form. The star is where a group is joined. Cbz = O=C(OCc1ccccc1)*; Boc = CC(C)(C)OC(=O)*; Aib = CC(C)(N)C(=O)O; OBn = c1ccc(CO*)cc1; OtBu = CC(C)(C)O*; βAla = NCCC(=O)O Some results are limits rather than exact numbers.

Take `CC#CC(O)(C(=O)OC1CCCN(C)C1)C1=CC=CCC1` (stereo not given): the TGI with A549 NSCLC, in the assay on ACHN renal, in the assay with HCT-116 colon, in the assay on KM12 colon, with MDA-MB-435 and in the assay with NCI-H460 lung was more than 100 µM in each case. For the same compound, the TGI with NCI/ADR-RES ovarian, with OVCAR-5 ovarian, with UACC-62 melanoma and with UO-31 renal was more than 100 µM throughout.

`CCOC(=O)C1=C(C)NC(=S)NC1c1cccc(O)c1` (stereo not given): the TGI was more than 100 µM in the assay on A549 NSCLC; more than 100 µM in the assay on ACHN renal; more than 100 µM in the assay on HCT-116 colon; more than 100 µM in the assay with KM12 colon; 38 µM in the assay on MDA-MB-435; more than 100 µM with NCI-H460 lung. The TGI in the assay with NCI/ADR-RES ovarian is more than 100 µM; in the assay with OVCAR-5 ovarian, more than 100 µM; in the assay on UACC-62 melanoma, more than 96.6 µM; in the assay on UO-31 renal it was more than 100 µM.

Take `CC[N+](C)(CC)CCN1C(=O)c2ccccc2S1(=O)=O`: the TGI in the assay on A549 NSCLC, in the assay on ACHN renal, with HCT-116 colon, in the assay with KM12 colon, in the assay with MDA-MB-435 and with NCI-H460 lung was more than 100 µM each time. Moreover, the TGI in the assay with NCI/ADR-RES ovarian, in the assay on OVCAR-5 ovarian, in the assay on UACC-62 melanoma and in the assay with UO-31 renal was more than 100 µM throughout.

Take `CSC(=NC1=NC(C(F)(F)F)(C(F)(F)F)N=C(c2ccccc2)O1)SC`: the TGI in the assay on A549 NSCLC is more than 100 µM; in the assay on ACHN renal, 14.9 µM; in the assay on HCT-116 colon, 16.3 µM; in the assay with KM12 colon it was 20.7 µM; with MDA-MB-435 it was 55 µM; in the assay on NCI-H460 lung, more than 100 µM. Also, the TGI is 90.9 µM with NCI/ADR-RES ovarian, 82.3 µM with OVCAR-5 ovarian, 64.2 µM in the assay on UACC-62 melanoma and 89.2 µM in the assay on UO-31 renal.

Regarding `N#CCCN(CCCN(C(=O)Nc1ccccc1)c1ccccc1)C(=O)Nc1ccccc1`, the TGI in the assay with A549 NSCLC, in the assay with ACHN renal, in the assay on HCT-116 colon, in the assay on KM12 colon, in the assay on MDA-MB-435 and in the assay with NCI-H460 lung was more than 100 µM in each case. For the same compound, the TGI with NCI/ADR-RES ovarian, in the assay on OVCAR-5 ovarian, with UACC-62 melanoma and with UO-31 renal was more than 100 µM in each case.

On to `NC(=O)CC(Nc1ncc2c(n1)-c1ccccc1OC2)C(=O)O` (stereo not given), for which the TGI in the assay on A549 NSCLC, in the assay on ACHN renal, with HCT-116 colon, in the assay with KM12 colon, in the assay on MDA-MB-435 and in the assay on NCI-H460 lung was more than 100 µM each time. Also, the TGI in the assay with NCI/ADR-RES ovarian, in the assay with OVCAR-5 ovarian, in the assay with UACC-62 melanoma and with UO-31 renal was more than 100 µM in each case.

As to `O=C(/C=C/c1ccc([N+](=O)[O-])cc1)c1nc2ccccc2[nH]1`, the TGI in the assay with A549 NSCLC was more than 100 µM; with ACHN renal it was more than 100 µM; in the assay on HCT-116 colon it was more than 38.7 µM; in the assay with KM12 colon it was more than 100 µM; in the assay with MDA-MB-435 it was more than 100 µM; in the assay with NCI-H460 lung, more than 100 µM. Further, the TGI is more than 100 µM with NCI/ADR-RES ovarian, 24.1 µM in the assay on OVCAR-5 ovarian, 63 µM with UACC-62 melanoma and more than 100 µM in the assay on UO-31 renal.

`CCCCN(c1ccccc1)c1ncnc2c1cnn2C`: the TGI in the assay with A549 NSCLC, in the assay with ACHN renal, with HCT-116 colon, in the assay on KM12 colon, with MDA-MB-435 and in the assay on NCI-H460 lung was more than 100 µM throughout. Moreover, the TGI is 72.7 µM with NCI/ADR-RES ovarian, more than 100 µM in the assay with OVCAR-5 ovarian, more than 100 µM in the assay with UACC-62 melanoma and more than 100 µM in the assay with UO-31 renal.

`O=C1c2ccccc2CC12Cc1ccc3c(c1C2)CCC3` (stereo not given): the TGI in the assay with A549 NSCLC amounted to 64.2 µM; in the assay with ACHN renal it was 61 µM; in the assay with HCT-116 colon, 40.1 µM; in the assay with KM12 colon it was 73.9 µM; with MDA-MB-435, 33.7 µM; in the assay with NCI-H460 lung it was 79.2 µM. Further, the TGI in the assay on NCI/ADR-RES ovarian was 28.4 µM; in the assay on OVCAR-5 ovarian, 42.2 µM; in the assay with UACC-62 melanoma it was 60.5 µM; in the assay with UO-31 renal it was more than 100 µM.

Take `Cc1ccc2c(c1)OC1Nc3ccccc3C1=C2O` (stereo not given): the TGI in the assay with A549 NSCLC was more than 100 µM; in the assay on ACHN renal, 60.8 µM; in the assay on HCT-116 colon, 65.1 µM; in the assay on KM12 colon, more than 100 µM; with MDA-MB-435 it was 95.9 µM; in the assay on NCI-H460 lung, 64.3 µM. Moreover, the TGI in the assay on NCI/ADR-RES ovarian is 86.3 µM; in the assay on OVCAR-5 ovarian it was more than 100 µM; in the assay on UACC-62 melanoma, 48 µM; in the assay on UO-31 renal, 61.6 µM.

`CC(C)(C)OC(=O)CC(NC(=O)OC(C)(C)C)C(=O)NC(CCCCNC(=O)OCc1ccccc1)C(=O)NC(C)(C)C(=O)NCCC(=O)OCc1ccccc1` (stereo not given) (Boc-D(OtBu)K(Cbz)[Aib][βAla]-OBn; configuration not given here): the TGI in the assay on A549 NSCLC, in the assay on ACHN renal, with HCT-116 colon, in the assay on KM12 colon, in the assay on MDA-MB-435 and with NCI-H460 lung was more than 100 µM throughout. Also, the TGI in the assay with NCI/ADR-RES ovarian, in the assay with OVCAR-5 ovarian, in the assay with UACC-62 melanoma and in the assay on UO-31 renal was more than 100 µM in each case.

In the case of `CCOC(=O)c1cn(-c2ccc(Cl)cc2)c(=O)n2c1nc1ccccc12`, the TGI in the assay on A549 NSCLC, with ACHN renal, with HCT-116 colon, in the assay on KM12 colon, in the assay on MDA-MB-435 and in the assay with NCI-H460 lung was more than 100 µM throughout. For the same compound, the TGI in the assay with NCI/ADR-RES ovarian, in the assay on OVCAR-5 ovarian, with UACC-62 melanoma and with UO-31 renal was more than 100 µM throughout.

On to `N#Cc1c2c(c(N3CCOCC3)n3c1nc1ccccc13)CCCC2`, for which the TGI was 61.7 µM with A549 NSCLC; 31.3 µM in the assay on ACHN renal; 31.7 µM with HCT-116 colon; more than 100 µM in the assay on KM12 colon; 39.7 µM in the assay with MDA-MB-435; 56.4 µM in the assay with NCI-H460 lung. For the same compound, the TGI in the assay with NCI/ADR-RES ovarian was 43.2 µM; in the assay on OVCAR-5 ovarian, 41.8 µM; in the assay with UACC-62 melanoma, 55.5 µM; in the assay on UO-31 renal it was 35.4 µM.

These data come from PubChem BioAssay (NCI).
